We go through 25 molecules from patent publication US20050004167A1, “Branched chain amino acid-dependent aminotransferase inhibitors and their use in the treatment of neurodegenerative diseases” (WARNER-LAMBERT COMPANY LLC, priority 2001, published 2005).

For series [1], the target named is T1, rat BCAT cytosolic form (Rattus norvegicus, UniProt P54690).
T1 construct: made in house; host or cells: E. coli BL21(DE3)
T1 sequence (P54690 1-411): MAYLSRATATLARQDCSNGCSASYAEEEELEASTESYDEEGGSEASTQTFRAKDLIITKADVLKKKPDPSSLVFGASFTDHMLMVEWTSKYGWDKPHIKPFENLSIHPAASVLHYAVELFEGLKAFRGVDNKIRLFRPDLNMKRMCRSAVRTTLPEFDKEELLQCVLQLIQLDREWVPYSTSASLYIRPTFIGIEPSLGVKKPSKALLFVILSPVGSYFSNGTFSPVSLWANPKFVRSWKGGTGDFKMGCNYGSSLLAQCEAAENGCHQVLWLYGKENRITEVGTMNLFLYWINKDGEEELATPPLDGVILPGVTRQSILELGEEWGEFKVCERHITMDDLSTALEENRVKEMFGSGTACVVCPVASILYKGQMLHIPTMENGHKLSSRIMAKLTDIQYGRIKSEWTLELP
The series can be described thus: In vitro coupled enzyme assay (glutamate dehydrogenase, NADH formation), rat BCATc. In kind it is biochemical. Particulars: recombinant rat BCATc, 37° C., 25 mM phosphate buffer pH 7.8; several values in a cell = repeat determinations; read-out: RrBCATc. The procedure:
(§1) In vitro enzyme assay—human Branched Chain Amino Acid Aminotransferase cytosolic form (hBCATc) and mitochondrial form (hBCATm) as well as rat BCAT cytosolic form were assayed at 37° C. in 25 mM phosphate buffer pH 7.8. In addition, 2 mM DTT and 12.5 mM […] were added to the assay mixture. A coupling enzyme assay was used to monitor the production of glutamate. The formation of NADH from NAD+ at […] was followed on a 96-well plate Molecular Devices plate reader.
(§2) The following components were used in this coupled assay: 4 mM ADP, 1 mM NAD+, 750 μM L-Leucine, 500 μM α-ketoglutarate, 10 μM pyridoxal phosphate, 1 unit glutamate dehydrogenase, and 1.25 μg of the appropriate BCAT enzyme. Inhibitions by compounds were assayed by adding various concentrations to this coupled assay procedure as a DMSO stock up to a 5% v/v DMSO/buffer ratio.
(§3) Enzyme Preparation—humanBCATc and ratBCATc were expressed in BL21(DE3) cells. A growing culture of cells was induced with 1 mM IPTG at room temperature overnight. These cells were harvested by centrifugation at 10,000 g for 20 minutes. The supernatant was discarded, and the cells were stored at −80° C. until needed. The protein was purified by the following method. The cell paste was resuspended in extraction buffer (0.1 M phosphate, pH 8.0, with 0.01 M Tris-HCL and 5 mM TCEP and then lysed on a French Press at 1000 psi. The lysate was centrifuged at 10,000 g for 15 minutes, and the pellet was discarded. The supernatant was loaded onto a Hitrap Chelating column previously charged with 0.1 M NiSO4 and washed with 3 to 4 column volumes of extraction buffer. The column was then washed with 0.01 Tris, pH 7.5, 10% glycerol, 150 mM NaCl, 5 mM TCEP for two column volumes. The column was then further washed with two column volumes of 0.1 M phosphate, pH 6.0, 0.01 M Tris, 10% glycerol and 750 mM NaCl. Finally, the column was washed with two column volumes of the same buffer plus 50 mM imidazole. The BCAT enzyme was then eluted with the same buffer but with 350 mM imidazole. The eluant was then dialyzed overnight against 10 mM phosphate buffer pH 8.0, 10% glycerol, and 5 mM TCEP. The dialyzed protein was then loaded onto a Q-sepharose column and eluted using a salt gradient. Active fractions were collected and further purified on a Superose-12 column to yield pure BCAT protein.

Series [2] deals with T2, human Branched Chain Amino Acid Aminotransferase cytosolic form (hBCATc) (Homo sapiens, UniProt P54687).
T2 construct: made in house; host or cells: E. coli BL21(DE3)
T2 sequence (P54687 1-386): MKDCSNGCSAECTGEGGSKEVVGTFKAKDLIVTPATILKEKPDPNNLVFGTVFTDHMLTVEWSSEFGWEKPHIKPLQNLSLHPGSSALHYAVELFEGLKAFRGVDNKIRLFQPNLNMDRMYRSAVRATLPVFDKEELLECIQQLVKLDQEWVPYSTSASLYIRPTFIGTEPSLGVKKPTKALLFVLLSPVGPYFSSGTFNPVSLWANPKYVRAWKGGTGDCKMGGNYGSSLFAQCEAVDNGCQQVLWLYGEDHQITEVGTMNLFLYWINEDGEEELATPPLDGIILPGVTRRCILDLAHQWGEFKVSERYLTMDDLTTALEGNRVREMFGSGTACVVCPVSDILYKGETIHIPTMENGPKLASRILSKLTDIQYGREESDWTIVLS
Kind of series: In vitro coupled enzyme assay (glutamate dehydrogenase, NADH formation), human BCATc. Type of series: biochemical. Particulars: recombinant human BCATc, 37° C., 25 mM phosphate buffer pH 7.8; several values in a cell = repeat determinations; read-out: RhBCATc. The procedure: as §1, §2, §3

Several values for one entry are separate records, joined by “and”; a condition that tells them apart may be missing. Equal entries are not always repeated.

For `O=C(NNS(=O)(=O)c1ccccc1)c1ccc2oc3ccccc3c2c1` [Example 1, Dibenzofuran-2-carboxylic acid 2-(phenylsulfonyl)hydrazide], the IC50 was 0.18 µM in series [1]; 2.9 µM and 1.4 µM in series [2].
Consider `COc1ccc2oc(C(=O)NNS(=O)(=O)c3ccccc3)cc2c1` [Example 4, 5-Methoxy-2-benzofurancarboylic acid 2-(phenylsulfonyl)hydrazide], for which the values for the IC50 in series [1] and in series [2] were 1.22 µM and 12.9 µM, respectively.
On to `CCOc1cccc2cc(C(=O)NNS(=O)(=O)c3ccccc3)oc12` [Example 6, 7-Ethoxy-2-benzofurancarboxylic acid 2-(phenylsulfonyl)hydrazide], for which the IC50 in series [1] was 0.66 µM; in series [2], 12.9 µM.
The corresponding values for `O=C(NNS(=O)(=O)c1ccccc1)c1cc2cccc(Cl)c2o1` [Example 7, 7-Chloro-benzofuran-2-carboxylic acid 2-(phenylsulfonyl)hydrazide] are 0.59 µM and 11.5 µM.
The corresponding values for `O=C(NNS(=O)(=O)c1ccccc1)c1cc2cc(Cl)ccc2o1` [Example 8, 5-Chloro-benzofuran-2-carboxylic acid 2-(phenylsulfonyl)hydrazide] are 0.3 µM and 3 µM.
Consider `O=C(NNS(=O)(=O)c1c(Cl)cccc1Cl)c1ccc2oc3ccccc3c2c1` [Example 28, 2-Dibenzofurancarboxylic acid 2-[(2,6-dichlorophenyl)sulfonyl]hydrazide], for which the melting point was 202 to 203 °C. For the same molecule, in series [2], the IC50 was > 100 µM.
`O=C(NNS(=O)(=O)c1ccccc1Br)c1cc2cc(Cl)ccc2o1` [Example 44, 2-Benzofurancarboxylic acid, 5-chloro-2-[(2-bromophenyl)sulfonyl]hydrazide]: the melting point lay in the range of 206.4 to 207.3 °C. Also, the IC50 in series [2] worked out at 3.44 µM.
`Cc1ccccc1S(=O)(=O)NNC(=O)c1cc2cc(Cl)ccc2o1` [Example 46, 2-Benzofurancarboxylic acid, 5-chloro-2-[(2-methylphenyl)sulfonyl]hydrazide]: the melting point was in the range of 190.5 to 192 °C. For the same molecule, the IC50 in series [2] is 1.08 µM and 0.7 µM.
Regarding `O=C(NNS(=O)(=O)c1ccccc1C(F)(F)F)c1ccc2ncccc2c1` [Example 134, 6-Quinolinecarboxylic acid, 2-[(2-trifluoromethylphenyl)sulfonyl]hydrazide], the melting point lay in the range of 236.7 to 237.4 °C. Also, the IC50 in series [2] stood at 17 µM.
On the same counts, the results for `O=C(NNS(=O)(=O)c1ccccc1OC(F)(F)F)c1ccc2ncccc2c1` [Example 136, 6-Quinolinecarboxylic acid, 2-[(2-trifluoromethoxyphenyl)sulfonyl]hydrazide] are 243.5 to 243.9 °C and 40 µM.
`O=C(NNS(=O)(=O)c1ccc(F)c(Cl)c1)c1ccc2ncccc2c1` [Example 140, 6-Quinolinecarboxylic acid, 2-[(3-chloro-4-fluorophenyl)sulfonyl]hydrazide] returned a melting point of 241.9 to 242.6 °C. For the same molecule, the IC50 in series [2] was > 100 µM.
The corresponding values for `O=C(NNS(=O)(=O)c1ccc(F)c(Cl)c1)c1cnc2ccccc2c1` [Example 141, 3-Quinolinecarboxylic acid, 2-[(3-chloro-4-fluorophenyl)sulfonyl]hydrazide] are 245 to 245.7 °C and > 100 µM.
On the same counts, the results for `COc1cccc(S(=O)(=O)NNC(=O)c2ccc3ncccc3c2)c1` [Example 142, 6-Quinolinecarboxylic acid, 2-[(3-methoxyphenyl)sulfonyl]hydrazide] are 201.9 to 202.7 °C and 46 µM.
On the same counts, the results for `COc1cccc(S(=O)(=O)NNC(=O)c2cnc3ccccc3c2)c1` [Example 143, 3-Quinolinecarboxylic acid, 2-[(3-methoxyphenyl)sulfonyl]hydrazide] are 226.9 to 227.2 °C and 80 µM.
`O=C(NNS(=O)(=O)c1cccc(Br)c1)c1ccc2ncccc2c1` [Example 144, 6-Quinolinecarboxylic acid, 2-[(3-bromophenyl)sulfonyl]hydrazide] returned a melting point of 216 to 216.8 °C. For the same molecule, the IC50 in series [2] was found to be 29 µM.
The corresponding values for `O=C(NNS(=O)(=O)c1cccc(Br)c1)c1cnc2ccccc2c1` [Example 145, 3-Quinolinecarboxylic acid, 2-[(3-bromophenyl)sulfonyl]hydrazide] are 231.5 to 232.3 °C and 80 µM.
The corresponding values for `O=C(NNS(=O)(=O)c1ccccc1)c1ccnc2ccccc12` [Example 155, Quinoline-4-carboxylic acid 2-(phenylsulfonyl)hydrazide] are 153 to 156 °C and > 100 µM.
In the case of `O=C(NNS(=O)(=O)c1ccccc1)c1cc2cc(NS(=O)(=O)c3ccccc3)ccc2o1` [Example 157, 2-Benzofurancarboxylic acid, 5-(phenylsulfonylamino)-, 2-(phenylsulfonyl)hydrazide], the melting point is 261.5 to 261.8 °C. For the same molecule, the IC50 in series [2] came out at 8.7 µM.
Turning to `CS(=O)(=O)Nc1ccc2oc(C(=O)NNS(=O)(=O)c3ccccc3)cc2c1` [Example 158, 2-Benzofurancarboxylic acid, 5-(methylsulfonylamino)-, 2-(phenylsulfonyl)hydrazide], the melting point was in the range of 255.4 to 256.1 °C. In addition, the IC50 in series [2] worked out at 26 µM.
As to `CCCCCc1ccc(S(=O)(=O)Nc2ccc3oc(C(=O)NNS(=O)(=O)c4ccccc4)cc3c2)cc1` [Example 163, 2-Benzofurancarboxylic acid, 5-(4-pentylphenylsulfonylamino)-, 2-(phenylsulfonyl)hydrazide], the melting point fell in the range of 169 to 169.8 °C.
Still for that read-out and setting: under `CC(C)Nc1ccc2oc(C(=O)NNS(=O)(=O)c3ccccc3)cc2c1` [Example 164, 2-Benzofurancarboxylic acid, 5-(N-isopropylamino)-, 2-(phenylsulfonyl)hydrazide] stands 94.7 to 95.5 °C.
`CCCc1ccc(S(=O)(=O)Nc2ccc3oc(C(=O)NNS(=O)(=O)c4ccccc4)cc3c2)cc1` [Example 165, 2-Benzofurancarboxylic acid, 5-(4-propyllphenylsulfonylamino)-, 2-(phenylsulfonyl)hydrazide] came in with a melting point of 160.4 to 161.1 °C.
Same read-out and setting: under `Nc1ccccc1S(=O)(=O)NNC(=O)c1ccc2oc3ccccc3c2c1` [Example 166, 2-Dibenzofurancarboxylic acid, 2-[(2-aminophenyl)sulfonyl]hydrazide] stands 217.9 to 218.4 °C; under `O=C(NNS(=O)(=O)c1ccccc1)c1cc2cc([N+](=O)[O-])ccc2[nH]1` [Example 170, 2-Indolecarboxylic acid, 5-nitro-2-phenylsulfonyl hydrazide], 268.2 to 269.1 °C; under `O=C(NNS(=O)(=O)c1ccccc1)c1cc2cc(Cl)ccc2[nH]1` [Example 171, 2-Indolecarboxylic acid, 5-chloro-2-phenylsulfonyl hydrazide], 79.1 to 79.9 °C.

A word on the melting point: it is the temperature of the solid-liquid transition.
